Measurements from patent US20140249135A1, “PIM KINASE INHIBITORS AND METHODS OF THEIR USE” (NOVARTIS AG, priority 2007, published 2014).
Read-outs that look alike come from different tables or passages of the source.

Columns and labels:
Format in all cases: biochemical
Pim1 kinase = Pim1 kinase (Homo sapiens, UniProt P11309); experiment: Pim1 ATP depletion assay;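 further: Luciferase-luciferin luminescence readout of residual ATP after PIM1 transfers phosphate to a peptide substrate, 40 µM ATP added, reaction run to roughly half ATP consumption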
Pim3 kinase = Pim3 kinase (Homo sapiens, UniProt Q86V86); experiment: Pim3 ATP depletion assay
Pim2 kinase = Pim2 kinase (Homo sapiens, UniProt Q9P1W9); experiment: Pim2 ATP depletion assay;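 further: Luciferase-based luminescent readout of ATP remaining after PIM2 phosphorylates a BAD peptide, final 5 nM enzyme, 4 µM ATP, 10 µM peptide, 2.5% DMSO, run to roughly half ATP consumption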
[1] = Pim1 ATP depletion assay, read-out: PIM1 IC50
[2] = Pim1 ATP depletion assay, read-out: IC50 (μM) PIM1

Pim1 kinase, sequence (P11309 whole entry): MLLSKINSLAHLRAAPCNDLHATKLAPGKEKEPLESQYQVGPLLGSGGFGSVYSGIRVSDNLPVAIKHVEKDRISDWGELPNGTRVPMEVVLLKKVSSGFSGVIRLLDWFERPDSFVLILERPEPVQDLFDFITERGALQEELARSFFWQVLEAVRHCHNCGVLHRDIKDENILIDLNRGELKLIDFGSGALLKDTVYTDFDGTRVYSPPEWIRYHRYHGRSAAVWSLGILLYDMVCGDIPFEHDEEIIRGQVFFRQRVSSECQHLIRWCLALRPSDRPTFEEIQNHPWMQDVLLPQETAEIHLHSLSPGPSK
Pim2 kinase, sequence (Q9P1W9 whole entry): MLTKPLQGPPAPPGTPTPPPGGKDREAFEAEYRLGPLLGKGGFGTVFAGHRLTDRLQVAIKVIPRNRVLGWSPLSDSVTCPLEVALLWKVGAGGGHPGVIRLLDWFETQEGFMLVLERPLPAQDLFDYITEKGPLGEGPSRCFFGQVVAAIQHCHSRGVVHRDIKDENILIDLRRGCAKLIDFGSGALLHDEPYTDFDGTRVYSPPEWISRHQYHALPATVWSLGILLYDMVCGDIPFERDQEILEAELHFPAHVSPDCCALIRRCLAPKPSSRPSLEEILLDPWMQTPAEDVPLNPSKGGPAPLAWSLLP

Compound | IC50 (Pim1 kinase; [1]) | IC50 (Pim3 kinase; read-out: PIM3 IC50) | IC50 (Pim2 kinase; read-out: PIM2 IC50) | IC50 (Pim1 kinase) | IC50 (Pim1 kinase; [2]) | IC50 (Pim3 kinase; read-out: IC50 (μM) PIM3) | IC50 (Pim2 kinase; read-out: IC50 (μM) PIM2)
N[C@H]1CCCN(c2ccncc2NC(=O)c2cccc(C3CCCCC3)n2)C1 [Example 635, 6-Cyclohexyl-pyridine-2-carboxylic acid (3-amino-3,4,5,6-tetrahydro-2H-[1,4′]bipyridinyl-3′-yl)-amide] | < 1 µM | < 1 µM | < 1 µM |  |  |  | 
Nc1ccc(-c2ccccc2F)nc1C(=O)Nc1cnccc1-c1ccncc1Cl [Example 615, 3-amino-N-(3′-chloro-4,4′-bipyridin-3-yl)-6-(2-fluorophenyl)pyridine-2-carboxamide] | < 1 µM | < 1 µM | < 1 µM |  |  |  | 
Cc1cc(-c2ccncc2NC(=O)c2nc(-c3c(F)cccc3F)ccc2N)cc(N)n1 [Example 623, 3-amino-N-(2′-amino-6′-methyl-4,4′-bipyridin-3-yl)-6-(2,6-difluorophenyl)pyridine-2-carboxamide] | < 1 µM | < 1 µM | < 1 µM |  |  |  | 
CC(C)NC(=O)c1ccc(F)c(-c2ccc(N)c(C(=O)Nc3cnccc3N3CCCC4(CCNC4)C3)n2)c1 (stereo not drawn) [Example 291, 3-Amino-6-(2-fluoro-5-isopropylcarbamoyl-phenyl)-pyridine-2-carboxylic acid [4-(2,7-diaza-spiro[4.5]dec-7-yl)-pyridin-3-yl]-amide] |  |  |  |  | < 1 µM | < 1 µM | < 1 µM
Cc1ccccc1-c1ccncc1NC(=O)c1nc(-c2c(F)cccc2F)ccc1N [Example 585, 3-amino-6-(2,6-difluoro-phenyl)-pyridine-2-carboxylic acid (4-o-tolyl-pyridin-3-yl)-amide] | < 1 µM | < 1 µM | < 1 µM |  |  |  | 
Nc1ccc(-c2c(F)ccc(OCc3ccccc3F)c2F)nc1C(=O)Nc1cnccc1N1CCC[C@H](N)C1 [Example 465, 3-Amino-6-[2,6-difluoro-3-(2-fluoro-benzyloxy)-phenyl]-pyridine-2-carboxylic acid (3-amino-3,4,5,6-tetrahydro-2H-[1,4′]bipyridinyl-3′-yl)-amide] |  |  |  |  | < 1 µM | < 1 µM | < 1 µM
N[C@H]1CCCN(c2ccncc2NC(=O)c2nc(-c3ccccc3)ccc2F)C1 [Example 568, 3-Fluoro-6-phenyl-pyridine-2-carboxylic acid (3-amino-3,4,5,6-tetrahydro-2H-[1,4′]bipyridinyl-3′-yl)-amide] | < 1 µM | < 1 µM | < 1 µM |  |  |  | 
CCOc1ccc(F)c(-c2ccc(N)c(C(=O)Nc3cnccc3N3CCC[C@H](N)C3)n2)c1F [Example 492, 3-Amino-6-(3-ethoxy-2,6-difluoro-phenyl)-pyridine-2-carboxylic acid (3-amino-3,4,5,6-tetrahydro-2H-[1,4′]bipyridinyl-3′-yl)-amide] |  |  |  |  | < 1 µM | < 1 µM | < 1 µM
Nc1ccc(-c2ccccc2F)nc1C(=O)Nc1cnccc1-c1ccncc1F [Example 616, 3-amino-N-(3′-fluoro-4,4′-bipyridin-3-yl)-6-(2-fluorophenyl)pyridine-2-carboxamide] | < 1 µM | < 1 µM | < 1 µM |  |  |  | 
Nc1cnc(-c2ccccc2)nc1C(=O)Nc1cnccc1N1CCCC(O)(C(F)(F)F)C1 (stereo not drawn) [Example 262, 5-Amino-2-phenyl-pyrimidine-4-carboxylic acid (3-hydroxy-3-trifluoromethyl-3,4,5,6-tetra-hydro-2H-[1,4′]bipyridinyl-3′-yl)-amide] |  |  |  |  | < 1 µM | < 1 µM | 1 to 10 µM
Nc1ccc(-c2c(F)cccc2F)nc1C(=O)Nc1cnccc1-c1cccnc1N [Example 630, 3-amino-N-(2-amino-3,4′-bipyridin-3′-yl)-6-(2,6-difluorophenyl)pyridine-2-carboxamide] | < 1 µM | < 1 µM | < 1 µM |  |  |  | 
Nc1cc(F)c(Br)nc1C(=O)Nc1cnccc1N1CCC[C@H](N)C1 [Example 259, 3-amino-N-{4-[(3S)-3-amino-piperidin-1-yl]pyridin-3-yl}-6-bromo-5-fluoropyridine-2-carboxamide] |  |  |  |  | < 1 µM | < 1 µM | < 1 µM
Nc1cc(-c2ccncc2NC(=O)c2cccc(-c3ccccc3)n2)nc(C(F)(F)F)n1 [Example 530, 6-Phenyl-pyridine-2-carboxylic acid [4-(6-amino-2-trifluoromethyl-pyrimidin-4-yl)-pyridin-3-yl]-amide] |  |  |  |  | < 1 µM | < 1 µM | < 1 µM
COc1cc(-c2ccncc2NC(=O)c2nc(-c3cc(C(=O)NC(C)C)ccc3F)ccc2N)nc(N)n1 [Example 267, 3-Amino-6-(2-fluoro-5-isopropylcarbamoyl-phenyl)-pyridine-2-carboxylic acid [4-(2-amino-6-methoxy-pyrimidin-4-yl)-pyridin-3-yl]-amide] |  |  |  |  | < 1 µM | < 1 µM | < 1 µM
N[C@H]1CCCN(c2ccncc2NC(=O)c2cccc(-c3nccs3)n2)C1 [Example 631, N-{4-[(3S)-3-amino-piperidin-1-yl]pyridin-3-yl}-6-(1,3-thiazol-2-yl)pyridine-2-carboxamide] | < 1 µM | < 1 µM | < 1 µM |  |  |  | 
COc1cc(-c2ccc(N)c(C(=O)Nc3cnccc3N3CCC[C@H](N)C3)n2)cnc1N [Example 416, 5,6′-diamino-5′-methoxy-[2,3′]bi-pyridinyl-6-carboxylic acid ((S)-3-amino-3,4,5,6-tetrahydro-2H-[1,4′]bipyridinyl-3′-yl)-amide] |  |  |  |  | < 1 µM | < 1 µM | < 1 µM

The next lines start with the values.

IC50 (Pim1 kinase; [1]) | IC50 (Pim3 kinase; read-out: PIM3 IC50) | IC50 (Pim2 kinase; read-out: PIM2 IC50) | IC50 (Pim1 kinase) | IC50 (Pim1 kinase; [2]) | IC50 (Pim3 kinase; read-out: IC50 (μM) PIM3) | IC50 (Pim2 kinase; read-out: IC50 (μM) PIM2) | Compound
< 1 µM | < 1 µM | < 1 µM |  |  |  |  | CC(C)NC(=O)c1ccc(F)c(-c2ccc(N)c(C(=O)Nc3cnccc3N3CC[C@@H](O)[C@H](N)C3)n2)c1F [Example 732, 3-Amino-6-(2,6-difluoro-3-isopropylcarbamoyl-phenyl)-pyridine-2-carboxylic acid (3-amino-4-hydroxy-3,4,5,6-tetra-hydro-2H-[1,4′]bipyridinyl-3′-yl)-amide]
< 1 µM | < 1 µM | < 1 µM |  |  |  |  | CC(C)CCc1ccc(F)c(-c2ccc(N)c(C(=O)Nc3cnccc3N3CCC[C@H](N)C3)n2)c1 [Example 755, (S)-3-amino-N-(4-(3-aminopiperidin-1-yl)pyridin-3-yl)-6-(2-fluoro-5-isopentylphenyl)picolinamide]
< 1 µM | < 1 µM | < 1 µM |  |  |  |  | COc1nccnc1-c1ccc(N)c(C(=O)Nc2cnccc2N2CCC[C@H](N)C2)n1 [Example 694, 3-Amino-6-(3-methoxy-pyrazin-2-yl)-pyridine-2-carboxylic acid (3-amino-3,4,5,6-tetrahydro-2H-[1,4′]bipyridinyl-3′-yl)-amide]
< 1 µM | < 1 µM | < 1 µM |  |  |  |  | CN(C)C(=O)c1ccc(F)c(-c2ccc(N)c(C(=O)Nc3cnccc3N3CCCC(O)C3)n2)c1 (stereo not drawn) [Example 657, 3-Amino-6-(5-dimethyl-carbamoyl-2-fluoro-phenyl)-pyridine-2-carboxylic acid (3-hydroxy-3,4,5,6-tetrahydro-2H-[1,4′]bipyridinyl-3′-yl)-amide]
< 1 µM | < 1 µM | < 1 µM |  |  |  |  | CC1(N)CCCN(c2ccncc2NC(=O)c2nc(-c3c(F)cccc3F)ncc2N)C1 (stereo not drawn) [Example 673, 5-Amino-2-(2,6-difluoro-phenyl)-pyrimidine-4-carboxylic acid (3-amino-3-methyl-3,4,5,6-tetrahydro-2H-[1,4′]bipyridinyl-3′-yl)-amide]
< 1 µM | < 1 µM | < 1 µM |  |  |  |  | Nc1ccc(-c2ncc(C(F)(F)F)cc2Cl)nc1C(=O)Nc1cnccc1N1CCC[C@H](N)C1 [Example 720, 5-Amino-3′-chloro-5′-trifluoro-methyl-[2,2′]bipyridinyl-6-carboxylic acid (3-amino-3,4,5,6-tetrahydro-2H-[1,4′]bi-pyridinyl-3′-yl)-amide]
< 1 µM | < 1 µM | < 1 µM |  |  |  |  | CC(C)Oc1ccc(F)c(-c2nc(C(=O)Nc3cnccc3N3CC[C@@H](O)[C@H](N)C3)c(N)cc2F)c1F [Example 664, 3-Amino-6-(2,6-difluoro-3-isopropoxy-phenyl)-5-fluoro-pyridine-2-carboxylic acid (3-amino-4-hydroxy-3,4,5,6-tetra-hydro-2H-[1,4′]bipyridinyl-3′-yl)-amide]
 | < 1 µM | < 1 µM | < 1 µM |  |  |  | Nc1ccc(-c2c(F)cccc2F)nc1C(=O)Nc1cnccc1N1CC[C@@H](O)[C@@H](N)C1 [Example 752, 3-Amino-6-(2,6-difluoro-phenyl)-pyridine-2-carboxylic acid (3-amino-4-hydroxy-3,4,5,6-tetra-hydro-2H-[1,4′]bipyridinyl-3′-yl)-amide]
< 1 µM | < 1 µM | < 1 µM |  |  |  |  | Nc1ccc(-c2ccccc2F)nc1C(=O)Nc1cnccc1N1CCC[C@@H](O)C1 [Example 659, 3-Amino-6-(2-fluoro-phenyl)-pyridine-2-carboxylic acid (3-hydroxy-3,4,5,6-tetrahydro-2H-[1,4′]bipyridinyl-3′-yl)-amide]
< 1 µM | < 1 µM | < 1 µM |  |  |  |  | Cc1nc(N)cc(-c2ccncc2NC(=O)c2nc(-c3nccs3)ccc2N)n1 [Example 643, 3-amino-N-[4-(6-amino-2-methylpyrimidin-4-yl)pyridin-3-yl]-6-(1,3-thiazol-2-yl)pyridine-2-carboxamide]
< 1 µM | < 1 µM | < 1 µM |  |  |  |  | Nc1cnc(-c2ccccc2F)nc1C(=O)Nc1cnccc1N1CC[C@@H](O)[C@H](N)C1 (stereo in doubt) [Example 662, 5-Amino-2-(2-fluoro-phenyl)-pyrimidine-4-carboxylic acid (3-amino-4-hydroxy-3,4,5,6-tetrahydro-2H-[1,4′]bi-pyridinyl-3′-yl)-amide]
